Reference: patent publication US20060135522A1, “Tricyclic delta-opioid modulators” (priority 2004, published 2006)
Where two headings read alike, the source gives them in different places.

Assays:
delta opioid receptor = molecular target: T1, delta opioid receptor (Rattus norvegicus, UniProt P33533); assay: Rat Brain Delta Opioid Receptor Binding Assay
T1 construct: from tissue; host or cells: forebrain of male Wistar rats (particulate membrane preparation)
Procedure: Procedure: Male, Wistar rats (150-250 g, VAF, Charles River, Kingston, N.Y.) were killed by CO2, and their brains were removed and placed immediately in ice cold Tris HCl buffer (50 mM, pH 7.4). The forebrains were separated from the remainder of the brain by a coronal transection, beginning dorsally at the colliculi and passing ventrally through the midbrain-pontine junction. After dissection, the forebrains were homogenized in Tris buffer in a Teflon®-glass homogenizer. The homogenate was diluted to a concentration of 1 g of forebrain tissue per 80 mL Tris and centrifuged at 39,000×g for 10 min. The pellet was resuspended in the same volume of Tris buffer containing 5 mM MgCl2 with several brief pulses from a Polytron homogenizer. This particulate preparation was used for the delta opioid binding assays. Following incubation with the delta selective peptide ligand ˜4 nM [^3H]DPDPE or 0.15 nM [^3H]naltrindole at 25° C. for 2.5 h in a 96-well plate with total volume of […], the plate contents were filtered through Wallac filtermat B sheets on a Tomtec 96-well harvester. The filters were rinsed three times with 2 mL of 10 mM HEPES (pH 7.4), and dried in a 650 W microwave oven for 1.75 min twice. To each sample area 2×50 μL of Betaplate Scint scintillation fluid (LKB) was added and the radioactivity was quantified on a LKB (Wallac) 1205 BetaPlate liquid scintillation counter.
(§1) Analysis: The data from the scintillation counter was used to calculate either the % inhibition compared to control binding (when only a single concentration of test compound was evaluated) or a Ki value (when a range of concentrations was tested). Percent inhibition was calculated as: [(total dpm-test compound dpm)/(total dpm-nonspecific dpm)]*100. Kd and Ki values were calculated using GraphPad PRISM data analysis program.

mu opioid receptor = molecular target: T2, mu opioid receptor (Rattus norvegicus, UniProt P33535); assay: Rat Brain Mu Opioid Receptor Binding Assay
T2 construct: from tissue; host or cells: forebrain of male Wistar rats (particulate membrane preparation)
T2 sequence (P33535 whole entry): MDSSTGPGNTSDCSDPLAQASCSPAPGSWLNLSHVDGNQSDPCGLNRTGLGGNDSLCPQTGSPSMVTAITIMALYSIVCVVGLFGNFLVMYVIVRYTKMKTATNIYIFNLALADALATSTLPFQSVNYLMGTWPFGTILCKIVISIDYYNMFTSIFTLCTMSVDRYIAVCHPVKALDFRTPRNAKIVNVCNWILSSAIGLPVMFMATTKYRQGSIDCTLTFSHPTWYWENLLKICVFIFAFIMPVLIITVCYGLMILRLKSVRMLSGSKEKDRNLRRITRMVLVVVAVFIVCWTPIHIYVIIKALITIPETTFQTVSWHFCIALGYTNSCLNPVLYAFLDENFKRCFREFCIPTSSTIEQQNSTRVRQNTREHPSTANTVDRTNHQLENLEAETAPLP
Procedure: Procedure: Male, Wistar rats (150-250 g, VAF, Charles River, Kingston, N.Y.) were killed by CO2, and their brains were removed and placed immediately in ice cold Tris HCl buffer (50 mM, pH 7.4). The forebrains were separated from the remainder of the brain by a coronal transection, beginning dorsally at the colliculi and passing ventrally through the midbrain-pontine junction. After dissection, the forebrains were homogenized in Tris buffer in a Teflon®-glass homogenizer. The homogenate was diluted to a concentration of 1 g of forebrain tissue per 80 mL Tris and centrifuged at 39,000×g for 10 min. The pellet was resuspended in the same volume of Tris buffer containing 5 mM MgCl2 with several brief pulses from a Polytron homogenizer. This particulate preparation was used for the mu opioid binding assays.
as §1

[1] = molecular target: T3, delta opioid receptor (NG108-15 cell membranes) (Mus musculus, UniProt P32300); assay: [35S]GTPγS Binding Assay in NG108-15 Cell Membranes (Delta Opioid); type: biochemical
T3 construct: NG108-15 cell membranes were purchased from Applied Cell Sciences (Rockville, Md.); host or cells: NG108-15 cell membranes (purchased)
T3 sequence (P32300 whole entry): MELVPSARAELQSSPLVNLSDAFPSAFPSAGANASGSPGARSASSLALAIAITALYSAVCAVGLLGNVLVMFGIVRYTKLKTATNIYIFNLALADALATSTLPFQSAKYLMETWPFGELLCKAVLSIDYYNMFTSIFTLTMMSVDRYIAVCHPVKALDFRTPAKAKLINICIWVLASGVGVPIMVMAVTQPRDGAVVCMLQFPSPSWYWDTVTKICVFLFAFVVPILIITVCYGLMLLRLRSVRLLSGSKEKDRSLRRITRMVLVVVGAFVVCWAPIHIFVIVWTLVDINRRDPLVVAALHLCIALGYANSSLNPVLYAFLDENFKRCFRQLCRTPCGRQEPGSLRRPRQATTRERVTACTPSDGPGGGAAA
Procedure: Methods: NG108-15 cell membranes were purchased from Applied Cell Sciences (Rockville, Md.). 8 mg/mL of membrane protein was suspended in 10 mM TRIS-HCl pH 7.2, 2 mM EDTA, 10% sucrose. Membranes were maintained at 4-8° C. A 1 mL volume of membranes was added into 10 mL cold binding assay buffer. The assay buffer contained 50 mM Tris, pH 7.6, 5 mM MgCl2, 100 mM NaCl, 1 mM DTT and 1 mM EGTA. The membrane suspension was homogenized twice with a Polytron, and centrifuged at 3000 rpm for 10 min. The supernatant was then centrifuged at 18,000 rpm for 20 min. Ten mL assay buffer was added into the pellet containing tube. The pellet and buffer were mixed with a Polytron.
Incubation procedure: The pellet membranes (75 μg/mL) were preincubated with SPA (10 mg/mL) at 25° C. for 45 min in the assay buffer. […] GTPγS in the same Tris buffer containing 100 μM GDP in a total volume of 200 μL. Increasing concentrations of receptor agonists were used to stimulate [^35S]-GTP[…]S binding. The basal binding was tested in the absence of agonists and non-specific binding was tested in the presence of 10 μM unlabeled GTPγS. The data were analyzed on a Packard Top Count.
% of Basal=(stimulated−non specific)*100/(basal−non specific).
EC50 value values were calculated using GraphPad Prism.

[2] = rat forebrain membranes, [3H]DAMGO, 25° C., 2.5 h, read-out: mu (Ki)
[3] = NG108-15 cell membranes, stimulation of [35S]GTPγS binding, read-out: delta GTPγS EC50

T1 sequence (P33533 whole entry): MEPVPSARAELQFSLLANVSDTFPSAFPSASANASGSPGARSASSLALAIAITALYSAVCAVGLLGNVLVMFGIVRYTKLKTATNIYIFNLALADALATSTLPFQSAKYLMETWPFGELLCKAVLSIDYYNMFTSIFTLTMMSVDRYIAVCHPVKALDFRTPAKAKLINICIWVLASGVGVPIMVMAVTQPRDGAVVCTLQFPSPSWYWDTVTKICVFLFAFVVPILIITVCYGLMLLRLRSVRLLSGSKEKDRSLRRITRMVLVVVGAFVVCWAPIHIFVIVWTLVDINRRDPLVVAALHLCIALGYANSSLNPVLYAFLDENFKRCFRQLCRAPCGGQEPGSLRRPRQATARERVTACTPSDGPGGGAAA

| Compound | Ki (delta opioid receptor) | Ki (mu opioid receptor; [2]) | EC50 [1, 3] | Ki (mu opioid receptor) | EC50 [1] | delta GTPγS Rel Eff. ([1]; NG108-15 cell membranes, relative efficacy) |
| --- | --- | --- | --- | --- | --- | --- |
| CCN(CC)C(=O)c1cccc(-c2ccc3c(c2)Oc2c(O)cccc2C3C2CCNCC2)c1 (stereo not shown) [3j, N,N-Diethyl-3-(5-hydroxy-9-piperidin-4-yl-9H-xanthen-3-yl)-benzamide] | 0.0378 µM | 0.535 µM | 0.342 µM |  |  |  |
| CCN(CC)C(=O)c1ccc2c(c1)Oc1c(O)cccc1C2C1CCNCC1 (stereo not shown) [7c, 5-Hydroxy-9-piperidin-4-yl-9H-xanthene-3-carboxylic acid diethylamide] | 0.002 µM |  |  | 4.23 µM | 0.0187 µM | 0.51 |
| CCN(CC)C(=O)c1ccc2c(c1)Oc1ccccc1C2C1CCNCC1 (stereo not shown) [8a, 9-Piperidin-4-yl-9H-xanthene-3-carboxylic acid diethylamide] | 0.015 µM | 8.79 µM | 0.266 µM |  |  |  |
